From patent publication US20180282605A1, “METHOD OF MONITORING A PARAMETER OF A HYDROCARBON WELL, PIPELINE OR FORMATION” (JOHNSON MATTHEY PUBLIC LIMITHED COMPANY, priority 2015, published 2018) come the findings set out here.

This series in a line: log P (octanol/water) of tracer anions. In kind it is physicochemical. The conditions noted are these: log of ratio of equilibrium concentration in oil (octanol) to that in water, representative example values. The source says:
The invention concerns the use of halogenated thiophene carboxylic acids or halogenated thiophene sulfonic acids, or salts of either, in tracing applications in hydrocarbon wells. Such compounds are not naturally found in hydrocarbon wells and formations and have not been previously used as tracers in such wells and formations. Tracers comprising such compounds may therefore be used as tracers in such wells and formations without the results of the tracing being affected by contamination. Moreover, the applicant has determined that non-halogenated thiophene compounds exist naturally in hydrocarbon formations and the compounds of the invention are therefore expected to be sufficiently stable, for example to have sufficient thermal stability, to survive the conditions in a hydrocarbon well. Since, unlike the naturally occurring thiophene compounds, the compounds of formula 1 are halogenated they are advantageously also detectable, for example using GC-MS, in very low concentrations, for example concentrations of 1 ppb or less, preferably concentrations of 100 ppt or less, more preferably concentrations of 10 ppt or less and yet more preferably concentrations of 1 ppt or less. The compounds of the invention may also show a high selectivity towards water instead of oil. Thus the tracer may be a water tracer. […] The log P value is a well-known value for characterising the preference of a compound for water or oil. The value is the log of the ratio of the equilibrium concentration of the compound in oil (octanol) to the equilibrium concentration of the compound in water. Thus the concentration of the compound in water is preferably at least 10 times, and more preferably at least 100 times, that of the compound in oil. It may be that the salt of the compound (or the anion of the salt) is more soluble in water than the acid. For that reason, it is preferable to use the salt as the tracer.

In general, logP refers to a log measure of how a compound divides between an organic and an aqueous phase. In the case of `O=C(O)c1csc(F)c1`, the logP was -1.81.

For `O=C(O)c1csc(Cl)c1`, the logP is -1.35.

For the compound `Cc1cc(C(=O)O)sc1F`, the logP is -1.16.
